From BindingDB's records for doi:10.1021/jm0408316 (University of Genoa, 2005)
Counter-ions that a name gives are not always drawn.

Target: not listed separately
Assay: Inhibition of benzylamine binding to Benzylamine oxidase of porcine serum

First: CC(C)(C)Sc1cncc(SC(C)(C)C)c1CN
Second: CCSc1cncc(SCC)c1CN
The IC50 of the first is 12-fold higher: 1.6 µM for the first, 0.13 µM for the second.

Going from `NCc1c(OCCO)cncc1OCCO` [2-{[4-(aminomethyl)-5-(2-hydroxyethoxy)pyridin-3-yl]oxy}ethanol dihydrochloride trihydrate] to `NCc1c(OCCCCO)cncc1OCCCCO` [4-{[4-(aminomethyl)-5-(4-hydroxybutoxy)pyridin-3-yl]oxy}butan-1-ol dihydrochloride], the IC50 falls from 3.2 µM to 0.15 µM (21-fold). The second is the more potent here.

Compared with `CNc1cncc(N(C)C)c1CN` [4-(aminomethyl)-5-(dimethyl-lambda~5~-azanyl)-N-methylpyridin-3-amine dihydrochloride dihydrate], `CNc1cncc(NC)c1CN` [4-(aminomethyl)-N-methyl-5-(methyl-lambda~5~-azanyl)pyridin-3-amine dihydrochloride] is 3.9-fold higher in IC50: 0.44 µM for the first, 1.7 µM for the second. The first is the more potent here.

Compared with `CCCNc1cncc(N(C)CCC)c1CN` [4-(aminomethyl)-5-[methyl(propyl)-lambda~5~-azanyl]-N-propylpyridin-3-amine dihydrochloride], `CCNc1cncc(N(C)CC)c1CN` [4-(aminomethyl)-N-ethyl-5-[ethyl(methyl)-lambda~5~-azanyl]pyridin-3-amine dihydrochloride] is 18000-fold lower in IC50: 350 µM for the first, 0.02 µM for the second.

`NCc1ccncc1N(C1CCCC1)C1CCCC1` [4-(aminomethyl)-N,N-dicyclopentylpyridin-3-amine dihydrochloride] and `NCc1ccncc1NC1CCCCCC1` [4-(aminomethyl)-N-cycloheptylpyridin-3-amine dihydrochloride hydrate] are within 1.5-fold of each other in IC50: 100 µM for the first, 79 µM for the second.

First: NCc1ccncc1NCC1CCCCC1 [4-(aminomethyl)-N-(cyclohexylmethyl)pyridin-3-amine dihydrochloride hydrate]
Second: NCc1ccncc1NC1CCCC1 [4-(aminomethyl)-N-cyclopentylpyridin-3-amine dihydrochloride]
The IC50 of the first is 2.9-fold lower: 5.6 µM for the first, 16 µM for the second.

Going from `NCc1ccncc1NC1CC1` [4-(aminomethyl)-N-cyclopropylpyridin-3-amine dihydrochloride hydrate] to `CNc1cnccc1CN` [4-(aminomethyl)-N-methylpyridin-3-amine dihydrochloride], the IC50 falls from over 100 µM to 8 µM.

Going from `CCNc1cnccc1CN` [4-(aminomethyl)-N-ethylpyridin-3-amine dihydrochloride] to `CC(C)Nc1cnccc1CN` [4-(aminomethyl)-N-isopropylpyridin-3-amine dihydrochloride], the IC50 rises from 2 µM to 100 µM (50-fold).

`CC(C)Nc1cncc(N(C)C(C)C)c1CN` [4-(aminomethyl)-N-isopropyl-5-[isopropyl(methyl)-lambda~5~-azanyl]pyridin-3-amine dihydrochloride] and `CCOc1cncc(OCC)c1CN` [(3,5-diethoxypyridin-4-yl)methylamine dihydrochloride] cannot be ordered by IC50: over 0.1 µM for the first, 0.17 µM for the second.

Compared with `NCc1ccncc1N` [4-(aminomethyl)pyridin-3-amine dihydrochloride], `CNc1ccccc1CN` [N-[2-(aminomethyl)phenyl]-N-methylamine dihydrochloride] is higher in IC50: 16 µM for the first, over 100 µM for the second.

Work on `CCOc1cncc(OCc2ccccc2)c1CN` [[3-(benzyloxy)-5-ethoxypyridin-4-yl]methylamine dihydrochloride] yielded an IC50 of 5 µM.

Target: Diamine oxidase (Sus scrofa)
Assay: Inhibition of putrescine binding to against Diamine oxidase of porcine kidney

Going from `CC(C)(C)Sc1cncc(SC(C)(C)C)c1CN` to `CC(C)Nc1cncc(N(C)C(C)C)c1CN` [4-(aminomethyl)-N-isopropyl-5-[isopropyl(methyl)-lambda~5~-azanyl]pyridin-3-amine dihydrochloride], the IC50 falls from over 1000 µM to 1 µM. The second is the more potent here.

First: CNc1cncc(N(C)C)c1CN [4-(aminomethyl)-5-(dimethyl-lambda~5~-azanyl)-N-methylpyridin-3-amine dihydrochloride dihydrate]
Second: CNc1cncc(NC)c1CN [4-(aminomethyl)-N-methyl-5-(methyl-lambda~5~-azanyl)pyridin-3-amine dihydrochloride]
The IC50 of the first is 2-fold lower: 0.061 µM for the first, 0.12 µM for the second. The first is the more potent here.
